# From ChEMBL document CHEMBL5380837, “Structure-Activity Relationships of Truncated 1'-Homologated Carbaadenosine Derivatives as New PPARγ/δ Ligands: A Study on Sugar Puckering Affecting Binding to PPARs” (J Med Chem, 2023)
# Experiments:
# [1] = target: T1, Peroxisome proliferator-activated receptor alpha (Homo sapiens) (UniProt Q07869); assay: Binding affinity to PPARalpha (unknown origin) at 30 uM by TR-FRET based LanthaScreen competitive binding assay relative to control
# T1 sequence (whole entry): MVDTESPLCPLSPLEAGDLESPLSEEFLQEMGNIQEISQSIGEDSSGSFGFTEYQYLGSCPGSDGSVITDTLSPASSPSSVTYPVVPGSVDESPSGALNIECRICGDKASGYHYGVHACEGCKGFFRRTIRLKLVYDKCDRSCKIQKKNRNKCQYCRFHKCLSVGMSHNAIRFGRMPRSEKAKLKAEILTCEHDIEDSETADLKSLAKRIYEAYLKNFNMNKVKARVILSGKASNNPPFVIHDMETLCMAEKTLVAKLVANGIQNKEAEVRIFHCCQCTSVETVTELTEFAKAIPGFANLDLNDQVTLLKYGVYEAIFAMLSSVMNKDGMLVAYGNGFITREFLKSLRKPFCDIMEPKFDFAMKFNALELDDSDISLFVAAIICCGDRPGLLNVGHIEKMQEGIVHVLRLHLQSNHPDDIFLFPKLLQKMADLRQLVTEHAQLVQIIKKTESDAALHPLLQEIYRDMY
# [2] = target: T2, Peroxisome proliferator-activated receptor delta (Homo sapiens) (UniProt Q03181); assay: Binding affinity to PPARdelta (unknown origin) at 30 uM by TR-FRET based LanthaScreen competitive binding assay relative to control
# T2 sequence (whole entry): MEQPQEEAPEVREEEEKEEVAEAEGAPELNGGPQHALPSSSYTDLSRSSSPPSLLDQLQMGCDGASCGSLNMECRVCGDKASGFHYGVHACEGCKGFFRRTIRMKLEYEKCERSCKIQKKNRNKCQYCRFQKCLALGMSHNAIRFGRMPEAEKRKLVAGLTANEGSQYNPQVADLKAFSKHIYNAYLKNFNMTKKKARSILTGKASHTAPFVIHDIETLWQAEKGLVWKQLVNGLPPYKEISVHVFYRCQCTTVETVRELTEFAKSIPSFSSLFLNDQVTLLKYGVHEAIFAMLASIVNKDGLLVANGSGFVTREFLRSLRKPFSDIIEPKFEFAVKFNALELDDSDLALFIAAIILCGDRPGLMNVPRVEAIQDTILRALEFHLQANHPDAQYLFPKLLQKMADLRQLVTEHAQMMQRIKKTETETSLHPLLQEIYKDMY
# [3] = target: T3, Peroxisome proliferator-activated receptor delta (Homo sapiens, UniProt Q03181); assay: Binding affinity to PPARdelta (unknown origin) assessed as inhibition constant by TR-FRET based LanthaScreen competitive binding assay
# T3 sequence (Q03181 whole entry): T2 sequence (whole entry)
# [4] = target: T4, Peroxisome proliferator-activated receptor gamma (Homo sapiens, UniProt P37231); assay: Binding affinity to PPARgamma (unknown origin) assessed as inhibition constant by TR-FRET based LanthaScreen competitive binding assay
# T4 sequence (P37231 whole entry): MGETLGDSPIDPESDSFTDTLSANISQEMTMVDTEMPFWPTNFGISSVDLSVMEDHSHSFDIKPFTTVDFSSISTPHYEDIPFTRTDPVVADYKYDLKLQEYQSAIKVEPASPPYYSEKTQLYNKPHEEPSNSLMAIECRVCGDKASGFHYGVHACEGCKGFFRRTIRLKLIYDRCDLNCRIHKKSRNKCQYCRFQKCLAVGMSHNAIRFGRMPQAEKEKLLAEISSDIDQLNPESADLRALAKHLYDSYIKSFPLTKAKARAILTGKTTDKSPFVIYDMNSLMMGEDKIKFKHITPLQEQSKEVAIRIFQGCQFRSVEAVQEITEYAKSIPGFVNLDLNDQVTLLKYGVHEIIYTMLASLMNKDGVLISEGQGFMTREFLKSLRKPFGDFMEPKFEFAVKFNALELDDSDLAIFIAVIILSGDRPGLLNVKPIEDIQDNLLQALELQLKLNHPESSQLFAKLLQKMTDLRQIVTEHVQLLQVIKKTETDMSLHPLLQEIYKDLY
# [5] = target: T3, Peroxisome proliferator-activated receptor delta; assay: Antagonist activity at PPARdelta LBD (unknown origin) assessed as increase in fluorescein labeled SMRT-ID2 corepressor peptide requirement by TR-FRET assay
Structure (SMILES),Activity [1] [%],Activity [2] [%],also measured
O[C@@H]1[C@H](O)C=C[C@H]1Cn1cnc2c(NCc3cccc(Br)c3)ncnc21,0.7,4.2,
O[C@@H]1[C@H](O)C=C[C@H]1Cn1cnc2c(NCc3cccc(F)c3)ncnc21,5.2,2.4,
O[C@@H]1[C@H](O)[C@@H]2C[C@@H]2[C@H]1Cn1cnc2c(NCc3cccc(F)c3)nc(Cl)nc21,3.6,,Activity ([2]; filed as antagonist): 46.3%
O[C@@H]1[C@H](O)[C@@H]2C[C@@H]2[C@H]1Cn1cnc2c(NCc3cccc(Br)c3)ncnc21,8.3,20,
O[C@@H]1[C@H](O)[C@@H]2C[C@@H]2[C@H]1Cn1cnc2c(NCc3cccc(Cl)c3)ncnc21,6,13.4,
O[C@@H]1C[C@@H]2C[C@]2(Cn2cnc3c(NCc4cccc(Cl)c4)ncnc32)[C@@H]1O,6.9,2,
O[C@H]1[C@H](Cn2cnc3c(NCc4cccc(I)c4)ncnc32)CC[C@H]1O,5.3,39.4,
O[C@H]1[C@H](Cn2cnc3c(NCc4cccc(F)c4)nc(Cl)nc32)CC[C@H]1O,6.5,37,
O[C@@H]1[C@H](O)[C@@H]2C[C@@H]2[C@H]1Cn1cnc2c(NCc3cccc(F)c3)ncnc21,7.1,0.8,
O[C@@H]1C[C@@H]2C[C@]2(Cn2cnc3c(NCc4cccc(I)c4)ncnc32)[C@@H]1O,9.4,8.6,
O[C@H]1[C@H](Cn2cnc3c(NCc4cccc(Cl)c4)nc(Cl)nc32)CC[C@H]1O,5.1,,Ki [3]: 1.62 µM
O[C@@H]1[C@H](O)C=C[C@H]1Cn1cnc2c(NCc3cccc(I)c3)ncnc21,4.1,7.3,
COc1cccc(CNc2nc(Cl)nc3c2ncn3C[C@H]2[C@H](O)[C@H](O)[C@@H]3C[C@H]23)c1,9.2,,Ki [3]: 0.292 µM
O[C@@H]1[C@H](O)C=C[C@H]1Cn1cnc2c(NCc3cccc(Cl)c3)nc(Cl)nc21,4,,Ki [3]: 2.49 µM
O[C@@H]1[C@H](O)C=C[C@H]1Cn1cnc2c(NCc3cccc(F)c3)nc(Cl)nc21,7,28.4,
O[C@@H]1C[C@@H]2C[C@]2(Cn2cnc3c(NCc4cccc(Br)c4)ncnc32)[C@@H]1O,5.6,9.2,
O[C@@H]1C[C@@H]2C[C@]2(Cn2cnc3c(NCc4cccc(F)c4)nc(Cl)nc32)[C@@H]1O,1.7,11.9,
O[C@@H]1[C@H](O)[C@@H]2C[C@@H]2[C@H]1Cn1cnc2c(NCc3cccc(I)c3)ncnc21,4.6,,Activity ([2]; filed as antagonist): 45.8%
O[C@H]1[C@H](Cn2cnc3c(NCc4cccc(F)c4)ncnc32)CC[C@H]1O,63,4.8,
O[C@@H]1[C@H](O)C=C[C@H]1Cn1cnc2c(NCc3cccc(Cl)c3)ncnc21,0.8,5.9,
COC(=O)c1sccc1S(=O)(=O)Nc1ccc(Nc2ccccc2)cc1OC,6.4,,
O[C@@H]1[C@H](O)[C@@H]2C[C@@H]2[C@H]1Cn1cnc2c(NCc3ccccc3I)nc(Cl)nc21,3.8,34.6,Ki [4]: 2.3 µM
Cc1cc(SCc2sc(-c3ccc(C(F)(F)F)cc3)nc2C)ccc1OCC(=O)O,34.9,,
O[C@@H]1[C@H](O)[C@@H]2C[C@@H]2[C@H]1Cn1cnc2c(NCc3ccc(I)cc3)nc(Cl)nc21,2.7,,Ki [3]: 1.15 µM
O[C@H]1[C@H](Cn2cnc3c(NCc4cccc(Br)c4)ncnc32)CC[C@H]1O,6.6,12.9,
O[C@@H]1[C@H](O)[C@@H]2C[C@@H]2[C@H]1Cn1cnc2c(NCc3cccc(Cl)c3)nc(Cl)nc21,3.8,,Ki [3]: 0.978 µM
O[C@@H]1C[C@@H]2C[C@]2(Cn2cnc3c(NCc4cccc(F)c4)ncnc32)[C@@H]1O,2.7,7.4,
O[C@@H]1[C@H](O)CO[C@H]1Cn1cnc2c(NCc3cccc(Br)c3)nc(Cl)nc21,0.3,,Ki [4]: 3.6 µM; Ki [3]: 0.374 µM; EC50 [5]: 26.4 µM
O[C@H]1[C@H](Cn2cnc3c(NCc4cccc(Cl)c4)ncnc32)CC[C@H]1O,4,2,
